Experimental data as given in patent US12077503B2, “Substituted cyclic amides and their use as herbicides” (FMC CORPORATION, priority 2015, dated 2024).

What was measured:
Assay type in all cases: in vivo
Kochia (Kochia scoparia) [1] = test: Test A preemergence; settings: Bassia scoparia, pre-emergence, 240 h, 0 to 100 scale where 0 is no effect and 100 is complete control, read-out: Kochia plant response rating; for pest or weed control at 31 g/ha: 31 g ai/ha, Preemergence; for pest or weed control at 125 g/ha: 125 g ai/ha, preemergence, visual injury rating, approximately 10 d
Outline: (§1)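 Treatment is preemergence as a directed soil spray after planting, or postemergence at the one- to two-leaf stage, with test chemical in a non-phytotoxic solvent mixture plus surfactant. Plants stay in the greenhouse about 10 d before visual injury scoring on a 0 to 100 scale versus untreated controls.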

[2] = test system: barnyardgrass (Echinochloa crus-galli); test: Test A preemergence; settings: Echinochloa crus-galli, pre-emergence, 240 h, 0 to 100 scale where 0 is no effect and 100 is complete control, read-out: Barnyardgrass plant response rating; for pest or weed control at 31 g/ha: 31 g ai/ha, Preemergence; for pest or weed control at 125 g/ha: 125 g ai/ha, preemergence, visual injury rating, approximately 10 d
Outline: as §1

[3] = test system: giant foxtail (Setaria faberii); test: Test A preemergence; settings: Setaria faberi, pre-emergence, 240 h, 0 to 100 scale where 0 is no effect and 100 is complete control, read-out: Foxtail, Giant plant response rating; for pest or weed control at 31 g/ha: 31 g ai/ha, Preemergence; for pest or weed control at 125 g/ha: 125 g ai/ha, preemergence, visual injury rating, approximately 10 d
Outline: as §1

[4] = test system: pigweed (Amaranthus retroflexus); test: Test A preemergence; settings: Amaranthus retroflexus, pre-emergence, 240 h, 0 to 100 scale where 0 is no effect and 100 is complete control, read-out: Pigweed plant response rating; for pest or weed control at 31 g/ha: 31 g ai/ha, Preemergence; for pest or weed control at 125 g/ha: 125 g ai/ha, preemergence, visual injury rating, approximately 10 d
[5] = test system: ragweed (common ragweed, Ambrosia elatior); test: Test A preemergence; settings: Ambrosia artemisiifolia, pre-emergence, 240 h, 0 to 100 scale where 0 is no effect and 100 is complete control, read-out: Ragweed plant response rating; for pest or weed control at 31 g/ha: 31 g ai/ha, Preemergence; for pest or weed control at 125 g/ha: 125 g ai/ha, preemergence, visual injury rating, approximately 10 d
Outline: as §1

[6] = test system: ryegrass, Italian (Italian ryegrass, Lolium multiflorum); test: Test A preemergence; settings: Lolium multiflorum, pre-emergence, 240 h, 0 to 100 scale where 0 is no effect and 100 is complete control, read-out: Ryegrass, Italian plant response rating; for pest or weed control at 31 g/ha: 31 g ai/ha, Preemergence; for pest or weed control at 125 g/ha: 125 g ai/ha, preemergence, visual injury rating, approximately 10 d
Outline: as §1

[7] = test system: Galium (catchweed bedstraw, Galium aparine); test: Test A postemergence; settings: Galium, post-emergence, 240 h, Postemergence, read-out: Galium plant response rating (0 to 100 scale); for pest or weed control at 125 g/ha: 125 g ai/ha, visual rating about 10 d after treatment; for pest or weed control at 31 g/ha: 31 g ai/ha, 0 is no effect, 100 is complete control
Outline: as §1

Kochia (Kochia scoparia) [8] = test: Test A postemergence; settings: Bassia scoparia, post-emergence, 240 h, Postemergence, read-out: Kochia plant response rating (0 to 100 scale); for pest or weed control at 125 g/ha: 125 g ai/ha, visual rating about 10 d after treatment; for pest or weed control at 31 g/ha: 31 g ai/ha, 0 is no effect, 100 is complete control
Outline: as §1

[9] = test system: barnyardgrass (Echinochloa crus-galli); test: Test A postemergence; settings: Echinochloa crus-galli, post-emergence, 240 h, Postemergence; for pest or weed control at 125 g/ha: 125 g ai/ha, visual rating about 10 d after treatment, read-out: Barnyardgrass plant response rating (0 to 100 scale, 0 no effect, 100 complete control); for pest or weed control at 31 g/ha: 31 g ai/ha, 0 is no effect, 100 is complete control, read-out: Barnyardgrass plant response rating (0 to 100 scale)
Outline: as §1

[10] = test system: blackgrass (Alopecurus myosuroides); test: Test A postemergence; settings: Alopecurus myosuroides, post-emergence, 240 h, Postemergence, read-out: Blackgrass plant response rating (0 to 100 scale); for pest or weed control at 125 g/ha: 125 g ai/ha, visual rating about 10 d after treatment; for pest or weed control at 31 g/ha: 31 g ai/ha, 0 is no effect, 100 is complete control
Outline: as §1

corn (Zea mays) = test: Test A postemergence; settings: Zea mays, post-emergence, 240 h, Postemergence, read-out: Corn plant response rating (0 to 100 scale); for plant injury at 125 g/ha: 125 g ai/ha, visual rating about 10 d after treatment; for plant injury at 31 g/ha: 31 g ai/ha, 0 is no effect, 100 is complete control
Outline: as §1

[11] = test system: giant foxtail (Setaria faberii); test: Test A postemergence; settings: Setaria faberi, post-emergence, 240 h, Postemergence, read-out: Foxtail, Giant plant response rating (0 to 100 scale); for pest or weed control at 125 g/ha: 125 g ai/ha, visual rating about 10 d after treatment; for pest or weed control at 31 g/ha: 31 g ai/ha, 0 is no effect, 100 is complete control
Outline: as §1

[12] = test system: pigweed (Amaranthus retroflexus); test: Test A postemergence; settings: Amaranthus retroflexus, post-emergence, 240 h, Postemergence, read-out: Pigweed plant response rating (0 to 100 scale); for pest or weed control at 125 g/ha: 125 g ai/ha, visual rating about 10 d after treatment; for pest or weed control at 31 g/ha: 31 g ai/ha, 0 is no effect, 100 is complete control
Outline: as §1

[13] = test system: ragweed (common ragweed, Ambrosia elatior); test: Test A postemergence; settings: Ambrosia artemisiifolia, post-emergence, 240 h, Postemergence, read-out: Ragweed plant response rating (0 to 100 scale); for pest or weed control at 125 g/ha: 125 g ai/ha, visual rating about 10 d after treatment; for pest or weed control at 31 g/ha: 31 g ai/ha, 0 is no effect, 100 is complete control
Outline: as §1

[14] = test system: ryegrass, Italian (Italian ryegrass, Lolium multiflorum); test: Test A postemergence; settings: Lolium multiflorum, post-emergence, 240 h, Postemergence, read-out: Ryegrass, Italian plant response rating (0 to 100 scale); for pest or weed control at 125 g/ha: 125 g ai/ha, visual rating about 10 d after treatment; for pest or weed control at 31 g/ha: 31 g ai/ha, 0 is no effect, 100 is complete control
Outline: as §1

[15] = test system: wheat (Triticum aestivum); test: Test A postemergence; settings: Triticum aestivum, post-emergence, 240 h, Postemergence, read-out: Wheat plant response rating (0 to 100 scale); for plant injury at 125 g/ha: 125 g ai/ha, visual rating about 10 d after treatment; for plant injury at 31 g/ha: 31 g ai/ha, 0 is no effect, 100 is complete control
Outline: as §1

[16] = test system: barnyardgrass (Echinochloa crus-galli); test: Test B flooded paddy test; settings: Echinochloa crus-galli, 250 g ai/ha, Flood; 0 to 100 scale where 0 is no effect and 100 is complete control; read-out: Barnyardgrass plant response rating
Outline: (§2)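 Response scored visually against untreated controls, 0 = no effect and 100 = complete control, 13–15 d after treatment in the greenhouse. Compounds added to paddy water held 3 cm above soil surface. Treatment given at 2-leaf stage.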

[17] = test system: ducksalad (Heteranthera limosa); test: Test B flooded paddy test; settings: Heteranthera limosa, 250 g ai/ha, Flood; 0 to 100 scale where 0 is no effect and 100 is complete control; read-out: Ducksalad plant response rating
Outline: as §2

rice (Oryra sativa) = test: Test B flooded paddy test; settings: Oryza sativa, 250 g ai/ha, Flood; 0 to 100 scale where 0 is no effect and 100 is complete control; read-out: Rice plant response rating
Outline: as §2

[18] = test system: sedge, umbrella (small-flower umbrella sedge, Cyperus difformis); test: Test B flooded paddy test; settings: Cyperus difformis, 250 g ai/ha, Flood; 0 to 100 scale where 0 is no effect and 100 is complete control; read-out: Sedge, Umbrella plant response rating
Outline: as §2

| SMILES | pest or weed control at 31 g/ha (Kochia (Kochia scoparia) [1]) [%] | pest or weed control at 125 g/ha (Kochia (Kochia scoparia) [1]) [%] | pest or weed control at 31 g/ha [2] [%] | pest or weed control at 125 g/ha [2] [%] | pest or weed control at 31 g/ha [3] [%] | pest or weed control at 125 g/ha [3] [%] | pest or weed control at 31 g/ha [4] [%] | pest or weed control at 125 g/ha [4] [%] | pest or weed control at 31 g/ha [5] [%] | pest or weed control at 125 g/ha [5] [%] | pest or weed control at 31 g/ha [6] [%] | pest or weed control at 125 g/ha [6] [%] | pest or weed control at 125 g/ha [7] [%] | pest or weed control at 31 g/ha [7] [%] | pest or weed control at 125 g/ha (Kochia (Kochia scoparia) [8]) [%] | pest or weed control at 31 g/ha (Kochia (Kochia scoparia) [8]) [%] | pest or weed control at 125 g/ha [9] [%] | pest or weed control at 31 g/ha [9] [%] | pest or weed control at 125 g/ha [10] [%] | pest or weed control at 31 g/ha [10] [%] | also measured |
| --- | --- | --- | --- | --- | --- | --- | --- | --- | --- | --- | --- | --- | --- | --- | --- | --- | --- | --- | --- | --- | --- |
| CN1C[C@H](c2ccc(C(F)(F)F)cc2)[C@@H](C(=O)Nc2ccccc2-n2cncn2)C1=O [Compound 1288] | 0 | 0 | 0 | 0 | 0 | 0 | 0 | 0 | 0 | 0 | 0 | 0 | 0 | 0 | 0 | 0 | 0 | 0 | 0 | 0 | plant injury at 125 g/ha (corn (Zea mays)): 0%; plant injury at 31 g/ha (corn (Zea mays)): 0%; pest or weed control at 125 g/ha [11]: 0%; pest or weed control at 31 g/ha [11]: 0%; pest or weed control at 125 g/ha [12]: 0%; pest or weed control at 31 g/ha [12]: 0%; pest or weed control at 125 g/ha [13]: 0%; pest or weed control at 31 g/ha [13]: 0%; pest or weed control at 125 g/ha [14]: 0%; pest or weed control at 31 g/ha [14]: 0%; plant injury at 125 g/ha [15]: 0%; plant injury at 31 g/ha [15]: 0%; pest or weed control at 250 g/ha [16]: 0%; pest or weed control at 250 g/ha [17]: 0%; pest or weed control at 250 g/ha (rice (Oryra sativa)): 0%; pest or weed control at 250 g/ha [18]: 0% |
| CN1C[C@H](c2cccc(C(F)(F)F)c2)[C@@H](C(=O)Nc2ccccc2-n2cncn2)C1=O [Compound 1289] | 0 | 0 | 20 | 30 | 50 | 50 | 0 | 0 | 0 | 0 | 0 | 0 | 0 | 0 | 0 | 0 | 0 | 0 | 0 | 0 | plant injury at 125 g/ha (corn (Zea mays)): 0%; plant injury at 31 g/ha (corn (Zea mays)): 0%; pest or weed control at 125 g/ha [11]: 0%; pest or weed control at 31 g/ha [11]: 0%; pest or weed control at 125 g/ha [12]: 0%; pest or weed control at 31 g/ha [12]: 0%; pest or weed control at 125 g/ha [13]: 0%; pest or weed control at 31 g/ha [13]: 0%; pest or weed control at 125 g/ha [14]: 0%; pest or weed control at 31 g/ha [14]: 0%; plant injury at 125 g/ha [15]: 0%; plant injury at 31 g/ha [15]: 0%; pest or weed control at 250 g/ha [16]: 0%; pest or weed control at 250 g/ha [17]: 0%; pest or weed control at 250 g/ha (rice (Oryra sativa)): 0%; pest or weed control at 250 g/ha [18]: 0% |
